What all share (assay type): biochemical
The target of test [1] is T1, noradrenaline (NA) reuptake in synaptosomes (Rattus norvegicus, UniProt Q9WTR4).
T1 construct: in synaptosomes as described in WO 97/16451; from tissue
Briefly: In vitro inhibition of NA reuptake in synaptosomes. The following applies: 3H-NA, as described in WO 97/16451, read-out: NA-uptake IC50. Here is the method: (§1) A number of compounds were tested for their ability to inhibit the reuptake of the monoamine neurotransmitters dopamine (DA), noradrenaline (NA) and serotonine (5-HT) in synaptosomes as described in WO 97/16451.
(§2) The test values are given as IC50 (the concentration (μM) of the test substance which inhibits the specific binding of ^3H-DA, ^3H-NA, or ^3H-5-HT by 50%).

Test [2] deals with T2, dopamine (DA) reuptake in synaptosomes (Rattus norvegicus, UniProt P23977).
T2 construct: in synaptosomes as described in WO 97/16451; from tissue
Briefly: In vitro inhibition of DA reuptake in synaptosomes. The settings on record: 3H-DA, as described in WO 97/16451, read-out: DA-uptake IC50. As for the experimental part:
as §1, §2

Test [3] deals with T3, serotonine (5-HT) reuptake in synaptosomes (Rattus norvegicus, UniProt P31652).
T3 construct: in synaptosomes as described in WO 97/16451; from tissue
Put plainly: In vitro inhibition of 5-HT reuptake in synaptosomes. The following applies: 3H-5-HT, as described in WO 97/16451, read-out: 5-HT-uptake IC50. As for the experimental part: as §1, §2

Counter-ions that a name gives are not always drawn. Some results are limits rather than exact numbers.

Usually IC50 stands for the midpoint of a concentration-inhibition curve.

T1 sequence (Q9WTR4 1-597): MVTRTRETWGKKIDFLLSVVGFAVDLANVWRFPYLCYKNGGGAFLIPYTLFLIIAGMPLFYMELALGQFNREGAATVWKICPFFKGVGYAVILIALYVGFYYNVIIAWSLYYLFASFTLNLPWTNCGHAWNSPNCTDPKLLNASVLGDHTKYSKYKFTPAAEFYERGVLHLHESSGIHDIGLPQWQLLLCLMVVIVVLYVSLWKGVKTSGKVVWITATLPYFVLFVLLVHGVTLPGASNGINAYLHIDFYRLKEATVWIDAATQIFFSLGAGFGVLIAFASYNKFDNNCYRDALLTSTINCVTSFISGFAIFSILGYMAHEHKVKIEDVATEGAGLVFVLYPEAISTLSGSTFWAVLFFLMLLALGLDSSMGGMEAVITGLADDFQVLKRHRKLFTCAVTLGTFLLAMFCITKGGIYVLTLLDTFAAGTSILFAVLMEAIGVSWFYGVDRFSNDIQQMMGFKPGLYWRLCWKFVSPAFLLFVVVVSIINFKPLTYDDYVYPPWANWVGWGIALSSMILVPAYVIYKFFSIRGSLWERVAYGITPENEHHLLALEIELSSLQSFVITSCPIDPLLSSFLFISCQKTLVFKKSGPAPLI
T2 sequence (P23977 whole entry): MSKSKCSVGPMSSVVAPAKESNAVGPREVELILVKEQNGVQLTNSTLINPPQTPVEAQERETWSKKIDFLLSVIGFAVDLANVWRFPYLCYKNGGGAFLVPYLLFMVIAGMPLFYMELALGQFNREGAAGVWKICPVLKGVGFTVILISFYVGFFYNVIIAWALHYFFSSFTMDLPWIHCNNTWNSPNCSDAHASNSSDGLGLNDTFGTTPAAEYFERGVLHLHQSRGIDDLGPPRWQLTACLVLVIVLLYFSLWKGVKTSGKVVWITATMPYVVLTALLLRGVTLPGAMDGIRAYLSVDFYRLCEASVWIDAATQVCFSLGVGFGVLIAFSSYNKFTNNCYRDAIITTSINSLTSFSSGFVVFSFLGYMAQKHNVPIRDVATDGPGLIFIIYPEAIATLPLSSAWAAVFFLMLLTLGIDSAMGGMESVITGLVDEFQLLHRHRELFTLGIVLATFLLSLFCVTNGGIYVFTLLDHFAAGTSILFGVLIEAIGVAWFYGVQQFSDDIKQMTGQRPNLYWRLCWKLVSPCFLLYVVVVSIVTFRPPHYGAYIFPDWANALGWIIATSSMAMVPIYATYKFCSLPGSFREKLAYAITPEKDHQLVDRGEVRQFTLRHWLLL
T3 sequence (P31652 whole entry): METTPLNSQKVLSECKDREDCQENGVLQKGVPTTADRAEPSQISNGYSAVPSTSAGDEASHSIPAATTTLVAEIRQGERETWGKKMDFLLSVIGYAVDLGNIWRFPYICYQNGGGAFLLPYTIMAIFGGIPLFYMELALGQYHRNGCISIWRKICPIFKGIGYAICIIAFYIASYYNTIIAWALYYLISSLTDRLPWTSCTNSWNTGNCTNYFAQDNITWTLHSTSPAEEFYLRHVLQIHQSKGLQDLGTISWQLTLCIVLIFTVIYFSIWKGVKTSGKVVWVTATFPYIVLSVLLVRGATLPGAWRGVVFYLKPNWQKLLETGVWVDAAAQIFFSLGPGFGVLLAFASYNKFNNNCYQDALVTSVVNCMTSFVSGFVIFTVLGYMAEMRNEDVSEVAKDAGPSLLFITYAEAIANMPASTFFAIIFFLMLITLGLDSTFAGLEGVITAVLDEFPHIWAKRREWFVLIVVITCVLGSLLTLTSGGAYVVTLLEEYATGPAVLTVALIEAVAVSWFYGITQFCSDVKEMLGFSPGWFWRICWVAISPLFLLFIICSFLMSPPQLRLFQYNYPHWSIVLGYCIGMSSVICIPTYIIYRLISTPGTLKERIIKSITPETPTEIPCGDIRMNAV

With `O=c1oc2cc(O[C@@H]3C[C@H]4CC[C@@H](C3)N4)ccc2cc1-c1ccccc1` [1st Compound of Example 2, exo-7-[(1S,3S,5R)-(8-Aza-bicyclo[3.2.1]oct-3-yl)oxy]-3-phenyl-chromen-2-one hydrochloric acid salt], the IC50 in test [1] came to 19 nM; in test [2] it was 48 nM; in test [3], 6 nM.

For `O=c1oc2cc(O[C@@H]3C[C@H]4CC[C@@H](C3)N4)ccc2cc1-c1cccc(F)c1` [6th Compound of Example 2, exo-7-[(1S,3S,5R)-(8-Aza-bicyclo[3.2.1]oct-3-yl)oxy]-3-(3-fluoro-phenyl)-chromen-2-one hydrochloric acid salt], the IC50 came to 26 nM in test [1], 28 nM in test [2] and 5.8 nM in test [3].

On to `O=c1cc(-c2ccccc2)c2ccc(O[C@@H]3C[C@H]4CC[C@@H](C3)N4)cc2o1` [4th Compound of Example 2, exo-7-[(1S,3S,5R)-(8-Aza-bicyclo[3.2.1]oct-3-yl)oxy]-4-phenyl-chromen-2-one hydrochloric acid salt], for which the IC50 in test [1] was greater than 1000 nM; in test [2], greater than 1000 nM; in test [3], 29 nM.

(Values after patent US20090312364A1, “NOVEL CHROMEN-2-ONE DERIVATIVES AND THEIR USE AS MONOAMINE NEUROT[…]-UPTAKE INHIBITORS” (NeuroSearch A/S, priority 2006, published 2009).)
